Assay: xn = mol fraction of the nth substance listed
Conditions: Liquid; for electrical conductivity: Radiometer CDM 210 Meterlab conductimeter with a CDC 745-9 cell

CCCC[N+]1(C)CCCC1.O=S(=O)([N-]S(=O)(=O)C(F)(F)F)C(F)(F)F + CN(C)C=O
295.2 K
Conditions | electrical conductivity, 101 kPa [S/m] | viscosity, 101.3 kPa [mPa·s]
x2 = 0 | 0.28 | 80
x2 = 0.13 | – | 40.3
x2 = 0.144 | 0.387 | –
x2 = 0.24 | – | 29.6
x2 = 0.252 | 0.495 | –
x2 = 0.33 | – | 21.7
x2 = 0.336 | 0.612 | –
x2 = 0.403 | 0.74 | –
x2 = 0.45 | – | 14.4
x2 = 0.457 | 0.78 | –
x2 = 0.519 | 0.981 | –
x2 = 0.54 | – | 9.9
x2 = 0.574 | 1.1 | –
x2 = 0.637 | 1.32 | –
x2 = 0.64 | – | 6.6
x2 = 0.716 | 1.6 | –
x2 = 0.74 | – | 3.7
x2 = 0.773 | 1.85 | –
x2 = 0.835 | 2.1 | –
x2 = 0.871 | 2.17 | –
x2 = 0.894 | 2.17 | –
x2 = 0.91 | 2.12 | –
x2 = 0.931 | 1.98 | –
x2 = 0.953 | 1.7 | –
x2 = 0.971 | 1.31 | –
x2 = 0.981 | 1.01 | –

CCCC[N+]1(C)CCCC1.O=S(=O)([N-]S(=O)(=O)C(F)(F)F)C(F)(F)F + Cc1cccnc1
Conditions | electrical conductivity [S/m]
295.2 K, 101 kPa, x2 = 0 | 0.28

CCCCCC[N+]1(C)CCCC1.O=S(=O)([N-]S(=O)(=O)C(F)(F)F)C(F)(F)F + CN(C)C=O
Conditions | electrical conductivity, 101 kPa [S/m] | viscosity, 101.3 kPa [mPa·s]
293.2 K, x2 = 0.1 | 0.155 | –
293.2 K, x2 = 0.5 | 0.382 | –
293.2 K, x2 = 0.9 | 1.68 | –
295.2 K, x2 = 0 | – | 119.8
295.2 K, x2 = 0.1 | 0.17 | –
295.2 K, x2 = 0.104 | – | 83
295.2 K, x2 = 0.205 | – | 56.7
295.2 K, x2 = 0.301 | – | 42.9
295.2 K, x2 = 0.402 | – | 28.1
295.2 K, x2 = 0.5 | 0.418 | 19.6
295.2 K, x2 = 0.599 | – | 12
295.2 K, x2 = 0.7 | – | 5.5
295.2 K, x2 = 0.9 | 1.74 | –
298.2 K, x2 = 0.1 | 0.191 | –
298.2 K, x2 = 0.5 | 0.47 | –
298.2 K, x2 = 0.9 | 1.82 | –
300.2 K, x2 = 0 | – | 96.8
300.2 K, x2 = 0.104 | – | 67.5
300.2 K, x2 = 0.205 | – | 47.2
300.2 K, x2 = 0.301 | – | 36.4
300.2 K, x2 = 0.402 | – | 24
300.2 K, x2 = 0.5 | – | 17
300.2 K, x2 = 0.599 | – | 10.5
300.2 K, x2 = 0.7 | – | 5.1
301.2 K, x2 = 0.1 | 0.211 | –
301.2 K, x2 = 0.5 | 0.522 | –
301.2 K, x2 = 0.9 | 1.9 | –
303.2 K, x2 = 0.1 | 0.224 | –
303.2 K, x2 = 0.5 | 0.557 | –
303.2 K, x2 = 0.9 | 1.96 | –
305.2 K, x2 = 0 | – | 79.6
305.2 K, x2 = 0.1 | 0.239 | –
305.2 K, x2 = 0.104 | – | 55.8
305.2 K, x2 = 0.205 | – | 39.8
305.2 K, x2 = 0.301 | – | 30.8
305.2 K, x2 = 0.402 | – | 20.9
305.2 K, x2 = 0.5 | 0.592 | 14.7
305.2 K, x2 = 0.599 | – | 9.3
305.2 K, x2 = 0.7 | – | 4.7
305.2 K, x2 = 0.9 | 2.02 | –
308.2 K, x2 = 0.1 | 0.26 | –
308.2 K, x2 = 0.5 | 0.645 | –
308.2 K, x2 = 0.9 | 2.1 | –
310.2 K, x2 = 0 | – | 64.8
310.2 K, x2 = 0.104 | – | 45.9
310.2 K, x2 = 0.205 | – | 33.6
310.2 K, x2 = 0.301 | – | 26.3
310.2 K, x2 = 0.402 | – | 17.9
310.2 K, x2 = 0.5 | – | 13
310.2 K, x2 = 0.599 | – | 8.4
310.2 K, x2 = 0.7 | – | 4.3
311.2 K, x2 = 0.1 | 0.28 | –
311.2 K, x2 = 0.5 | 0.697 | –
311.2 K, x2 = 0.9 | 2.19 | –
313.2 K, x2 = 0.1 | 0.295 | –
313.2 K, x2 = 0.5 | 0.732 | –
313.2 K, x2 = 0.9 | 2.24 | –
315.2 K, x2 = 0 | – | 54.2
315.2 K, x2 = 0.1 | 0.31 | –
315.2 K, x2 = 0.104 | – | 38
315.2 K, x2 = 0.205 | – | 28.8
315.2 K, x2 = 0.301 | – | 22.6
315.2 K, x2 = 0.402 | – | 15.7
315.2 K, x2 = 0.5 | 0.767 | 11.4
315.2 K, x2 = 0.599 | – | 7.5
315.2 K, x2 = 0.7 | – | 3.9
315.2 K, x2 = 0.9 | 2.31 | –
318.2 K, x2 = 0.1 | 0.33 | –
318.2 K, x2 = 0.5 | 0.819 | –
318.2 K, x2 = 0.9 | 2.39 | –
320.2 K, x2 = 0 | – | 45.9
320.2 K, x2 = 0.104 | – | 32.4
320.2 K, x2 = 0.205 | – | 24.8
320.2 K, x2 = 0.301 | – | 19.5
320.2 K, x2 = 0.402 | – | 13.9
320.2 K, x2 = 0.5 | – | 10
320.2 K, x2 = 0.599 | – | 6.8
320.2 K, x2 = 0.7 | – | 3.6
321.2 K, x2 = 0.1 | 0.351 | –
321.2 K, x2 = 0.5 | 0.871 | –
321.2 K, x2 = 0.9 | 2.48 | –
323.2 K, x2 = 0.1 | 0.365 | –
323.2 K, x2 = 0.5 | 0.91 | –
323.2 K, x2 = 0.9 | 2.54 | –
325.2 K, x2 = 0 | – | 38.9
325.2 K, x2 = 0.104 | – | 27.6
325.2 K, x2 = 0.205 | – | 21.8
325.2 K, x2 = 0.301 | – | 16.9
325.2 K, x2 = 0.402 | – | 12
325.2 K, x2 = 0.5 | – | 9.1
325.2 K, x2 = 0.599 | – | 6.2
325.2 K, x2 = 0.7 | – | 3.4

Cc1cccnc1 [3-methylpyridine] + CCCCn1cc[n+](C)c1.F[B-](F)(F)F
295.2 K, 101 kPa
Conditions | electrical conductivity [S/m]
x1 = 0.061 | 0.44
x1 = 0.114 | 0.476
x1 = 0.162 | 0.52
x1 = 0.205 | 0.555
x1 = 0.244 | 0.588
x1 = 0.279 | 0.616
x1 = 0.34 | 0.674
x1 = 0.392 | 0.72
x1 = 0.474 | 0.802
x1 = 0.568 | 0.845
x1 = 0.659 | 0.915
x1 = 0.721 | 0.928
x1 = 0.763 | 0.936
x1 = 0.798 | 0.94
x1 = 0.838 | 0.838
x1 = 0.866 | 0.747
x1 = 0.906 | 0.59
x1 = 0.928 | 0.474

Cc1cccnc1 [3-methylpyridine] + CCCC[N+]1(C)CCCC1.O=S(=O)([N-]S(=O)(=O)C(F)(F)F)C(F)(F)F
295.2 K, 101 kPa
Conditions | electrical conductivity [S/m]
x1 = 0.029 | 0.353
x1 = 0.057 | 0.335
x1 = 0.095 | 0.367
x1 = 0.153 | 0.416
x1 = 0.194 | 0.445
x1 = 0.249 | 0.467
x1 = 0.338 | 0.522
x1 = 0.387 | 0.578
x1 = 0.439 | 0.606
x1 = 0.49 | 0.635
x1 = 0.54 | 0.686
x1 = 0.591 | 0.726
x1 = 0.64 | 0.761
x1 = 0.691 | 0.793
x1 = 0.743 | 0.814
x1 = 0.794 | 0.808
x1 = 0.845 | 0.771
x1 = 0.896 | 0.665

CCCCn1cc[n+](C)c1.F[B-](F)(F)F [1-butyl-3-methylimidazolium tetrafluoroborate] + Cc1cccnc1
Conditions | electrical conductivity [S/m]
295.2 K, 101 kPa, x2 = 0 | 0.378

CCCCn1cc[n+](C)c1.F[B-](F)(F)F [1-butyl-3-methylimidazolium tetrafluoroborate] + CN(C)C=O
295.2 K, 101 kPa
Conditions | electrical conductivity [S/m] | viscosity [mPa·s]
x2 = 0 | 0.375 | 122.9
x2 = 0.088 | 0.464 | –
x2 = 0.14 | – | 65.6
x2 = 0.161 | 0.551 | –
x2 = 0.224 | 0.629 | –
x2 = 0.23 | – | 45.4
x2 = 0.324 | 0.79 | –
x2 = 0.33 | – | 26.3
x2 = 0.366 | 0.871 | –
x2 = 0.434 | 1.03 | –
x2 = 0.44 | – | 16.1
x2 = 0.49 | 1.17 | –
x2 = 0.53 | – | 11.2
x2 = 0.535 | 1.3 | –
x2 = 0.606 | 1.55 | –
x2 = 0.61 | – | 9.8
x2 = 0.658 | 1.72 | –
x2 = 0.728 | 2.01 | –
x2 = 0.73 | – | 4.7
x2 = 0.793 | 2.31 | –
x2 = 0.828 | 2.4 | –
x2 = 0.852 | 2.44 | –
x2 = 0.906 | 2.44 | –
x2 = 0.957 | 1.83 | –
x2 = 0.973 | 1.39 | –
x2 = 0.981 | 1.13 | –

— the NIST ThermoML archive (doi:10.1021/je0504515)
